Source: US8865659B2, “Compositions for prevention or treatment of Hepatitis C virus containing ginsenoside Rg3 as an active ingredient” (priority 2012, dated 2014)

Experiments:
Format in all cases: cell-based
[1] = system: Huh 7.5.1 cells infected with JFH-1 virus; assay: Microscopic identification of virus suppression effect (cell shape, phase contrast microscope); details: 100 μM, JFH-1 infected
Description: About 200,000 Huh 7.5.1 cells were added to a 60×15 mm cell culture dish and every 100 μM of seven ginsenosides (Ro, Re, Rg1, Rg2, Rg3, Rh1, Rh2) per 60×15 mm cell culture dish each was treated. Since it was necessary for ginsenosides in powder formulation to make solutions for the experiments, 50 mM basic concentration solutions for the seven ginsenosides each were prepared and the basic solutions were refrigerated at 4° C. until they were needed.
Non-treatment group (Control), Non-treatment group and DMSO 10 μl treatment group (Control+DMSO 10 μl), JFH-1 virus treatment group (Only JFH-1), JFH-1 virus and DMSO 10 μl treatments group (JFH-1+DMSO 10 μl), JFH-1 virus and Ro 100 uM treatments group (JFH-1+Ro 100 uM), JFH-1 virus and Re 100 uM treatments group (JFH-1+Re 100 uM), JFH-1 virus and Rg1 100 uM treatments group (JFH-1+Rg1 100 uM), JFH-1 virus and Rg2 100 uM treatments group (JFH-1+Rg2 100 uM), JFH-1 virus and Rg3 100 uM treatments group (JFH-1+Rg3 100 uM), JFH-1 virus and Rh1 100 uM treatments group (JFH-1+Rh1 100 uM), JFH-1 virus and Rh2 100 uM treatments group (JFH-1+Rh2 100 uM), JFH-1 virus and Rg1 100 uM treatments group (JFH-1+Rg1 100 uM).
(§1) The experiment was carried out as follow. First, 200,000 Huh 7.5.1 cells were placed in a 60×15 mm cell culture dish. Next day, Japanese Fulminant Hepatitis-1 virus (JFH-1) stock vial which was stored in −70° C. refrigerator was taken out and thawed out in a container filled with ice-water. The culture medium was collected from the cultured 60×15 mm cell culture dish, washed with 1×PBS and collected, again. 1.5 ml of JFH-1 virus solution per 60×15 mm cell culture dish each was added. The dish was shaken to cover the surface sufficiently. The dish was laid in a 5% CO2 incubator at 37° C. for 6 hours and after that, the supernatant was draw out. 1×PBS was spread on the cell surface as slow as possible and after one time washing, cells were collected. 5 ml of cell culture media was added to control and JFH-1 treatments groups. At the last step of virus-infection, 5 ml CM and each 10 μM of ginsenosides which was set to 50 mM concentration were added to the cell culture media. After that, the cell culture media was laid in a 5% CO2 incubator at 37° C. After 72 hours, the following steps were carried out.
As described in the above Example 3, each 100 μM of seven ginsenosides (Ro, Re, Rg1, Rg2, Rg3, Rh1, Rh2) was treated to Huh 7.5.1 cells. After 24 hours and 72 hours, the shapes of Huh 7.5.1 cells were observed using a phase contrast microscope (ECLIPSE TE300, Nicon) of 400× magnifications.

[2] = system: Hepatitis C virus (JFH-1); assay: Real-time PCR against JFH-1 mRNA in Huh 7.5.1 cells; details: 100 μM, 72 hours
Description: as §1, with “At the last step of virus-infection, 5 ml CM and each 10 μM of ginsenosides which was set to 50 mM concentration were added to the cell culture media.” left out
As described in the above Example 3, the Huh 7.5.1 cells were treated with each 100 μM of seven ginsenosides (Ro, Re, Rg1, Rg2, Rg3, Rh1, Rh2). After 72 hours, a real-time PCR against JFH-1 mRNA was carried out. […]
Specific real-time PCR carried out was as follow. […] After that, total RNA was extracted from the cells treated by the above described method by using Rneasy mini kit (QIAGEN) and quantified by using Nanodrop 1000 (Thermo Scientific). […]

[3] = system: JFH-1 virus infected Huh 7.5.1 cell; assay: MTT assay, cytotoxicity of ginsenosides on liver cancer cell line; details: 10, 25, 50 and 100 μL concentration (so in the source), 72 hours
Description: MTT assay was conducted to identify cytotoxicity of ginsenosides.
Specifically, the cells (Huh7.5.1) were seeded at the rate of 1×10^4 cells (in 100 μL)/well in 96 well plates, and incubated in 5% CO2 incubator for less than 24 hours. And after the samples were washed with 1×PBS once and treated with the rate of 50 ul JFH-1 virus/well, and replaced in the 5%, CO2 incubator for six hours. After taking out the cell samples from the incubator, the samples were washed with 1×PBS once and replaced in the culturing media comprising 10, 25, 50 and 100 μL concentration of the above stated seven (7) ginsenosides in Example 3, respectively. After the cells were incubated in 5% CO2 incubator for 72 hours, 20 μl of assay reagent, EZ Cytox, was seeded into each well with the care of no bubble producing. And then, the treated cells were incubated in 5% CO2 incubator for 2.5 hours, followed by examining absorbance at 420 nm with Microplate Reader (Molecular Devices, Minn.). DMSO was the solvent used when treating with ginsenoside, and both the control group and the cells infected with JFH-1 group were also treated with the solvent DMSO.

With `CC(C)=CCC[C@](C)(O)[C@H]1CC[C@]2(C)[C@@H]1[C@H](O)C[C@@H]1[C@@]3(C)CC[C@H](O[C@@H]4O[C@H](CO)[C@@H](O)[C@H](O)[C@H]4O[C@@H]4O[C@H](CO)[C@@H](O)[C@H](O)[C@H]4O)C(C)(C)[C@@H]3CC[C@]12C` [ginsenoside Rg3] the “shapes of Huh 7.5.1 cells” value ([1]; 24 hours after treatment) was “fuses cells”, the “shapes of Huh 7.5.1 cells” value ([1]; 72 hours after treatment) was “fuses cells” and the “JFH-1 mRNA” value [2] was “remarkably decreased”. For the same molecule, the “cytotoxicity (MTT assay)” value [3] was “no cytotoxicity”.
